From patent US8268961B2, “Antibacterial peptides and analogues thereof” (Universita Degli Studi di Siena, priority 2004, dated 2012)
Where two headings read alike, the source gives them in different places. Positions of bridges follow the written chain, without caps; N, C: chain ends. Residues, ends and D or L forms follow the SMILES beside them. Chains are numbered I, II in the order given. No end group written: not given here.

Key:
[1] = system: Escherichia coli ATCC 25922; type: cell-based
Source text: (§1) MIC is defined as the lowest concentration, in an antibiotic dilution range, that inhibits visible bacterial growth. The importance of MIC sensitivity test is based on the principle that in vitro sensitivity provides a predictive indication of the in vivo efficacy of the antibiotic therapy. Values are expressed as molar concentration and compared to MIC values obtained with commercially available antibiotics such as amikacin, ceftriaxone and levofloxacin (Table 3).
(§2) Reference strains (Escherichia coli ATCC 25922, Pseudomonas aeruginosa ATCC 27853, Staphylococus aureus ATCC 25923 and Chryseobacterium meningosepticum CCUG 4310) and several recent clinical isolates (including multidrug-resistant ones) of various species (Table 2) were used for conventional susceptibility testing experiments. Minimum Inhibitory Concentration (MIC) was determined by a standard microdilution assay as recommended by the National Commitee for Clinical Laboratory Standards (NCCLS) using cation-supplemented Mueller-Hinton (MH) broth (Oxoid Ltd. Basingstoke, UK) and a bacterial inoculum of 5×10^4 CFU per well, in a final volume of 100 μl. Results were recorded by visual inspection after 24 h of incubation at 37° C.

[2] = system: Pseudomonas aeruginosa ATCC27853; type: cell-based
Source text: as §1, §2

[3] = system: Staphylococcus aureus ATCC 25923; type: cell-based; details: Staphylococcus aureus ATCC 25923, reference strain
Source text: as §1, §2

E. coli strain TG1 = assay: Test of antibacterial activity (colony growth inhibition) on E. coli strain TG1; type: cell-based; details: E. coli TG1, colony counting vs control without peptide
Protocol: The antimicrobic activity of the peptides in linear form (L1, L4, L5, L6) and in MAP form (M1, M4, M5, M6) was assayed on the TG1 strain of E. coli. The peptides were incubated at various concentrations (2-1-0.5-0.25-0.12 mg/ml) with cells of E. coli (OD600=0.2) for about 1 hour at 37° C. Subsequently, the cells were plated on agar at dilution such to allow counting of individual colonies. The antimicrobic activity of the synthesised peptide L 1 and M1 is shown FIG. 1 and is compared to a non correlated MAP peptide (MNC) used as negative control.
In one example, the tetrabranched MAP peptides with the amino acid sequence: QAKIRVRLSA [SEQ ID NO: 2], KIRVRLSA [SEQ ID NO: 3], QKKIRVRLSA [SEQ ID NO: 4] are used individually in a bacterial colony growth inhibition test. The test is conducted by incubating different concentrations of MAP peptides with E. coli (strain TG1) and plating bacterial cells on agar at a dilution such to allow for individual colonies counting. The following day, the number of colonies grown after treatment with the three MAP peptides is compared.
Antimicrobic tests were conducted incubating for 75 min at 37° C., 25 μL of E. coli at the OD600 of 0.2 with 25 μl of MAP peptide dissolved in PBS at the various concentrations. The different incubations were further diluted 1:1000 in 2×TY medium and 100 μl were plated on solid 2×TY medium. The plates were left overnight at 30° C. and the individual grown colonies were counted and compared with a control, not treated with MAP peptide.

[4] = Stability to plasmatic protease (HPLC); type: in vitro ADME, human
Protocol: Since the use of peptides as therapeutic agents is severely limited by their in vivo half-life, the stability to human serum protease of the linear peptide L1 and of the MAP peptides M1, M4, M5 and M6 was evaluated. The peptides were incubated at the concentration of 10 mM with plasma and with human serum for 2 and 24 hours; the samples were subsequently analysed in HPLC on column C18 (see materials and methods) to evaluate the presence of linear and MAP peptide not digested by the protease.
The various peptides in MAP form and the linear peptide (L1) were dissolved in H2O at the concentration of 10 mM and incubated with 10 μl of plasma and human serum for 2 and 24 hours at 37° C. To each sample were added 150 μl of methanol to block the proteolytic reaction; each sample was then centrifuged at 13,000 rpm for 2 min and to the supernatant were added 0.75 ml of 0.1% trifluoroacetic acid. The samples were analysed in reverse phase HPLC on a Vydac C18 semi-preparative column using a 30 min gradient of buffer B from 20% to 95% (buffer A: 0.1% trifluoroacetic acid/water; buffer B: 0.1% trifluoroacetic acid/methanol), to evaluate the presence of linear and MAP peptide after the proteolytic treatment.

[5] = system: E. coli plasmid vector pCEP4 DNA; assay: DNA binding assay (gel retardation); details: 200 ng pCEP4, 1% agarose gel, 1 h room temperature
Protocol: In an attempt to clarify the molecular mechanism of action, the authors examined the binding properties on DNA exerted by M6 dendrimeric peptide and magainin 2, an antimicrobial peptide which has a pore-forming activity on the cell membrane. The DNA binding abilities of M6 and magainin 2 were examined by analyzing the electrophoretic mobility of DNA bands at the various weight ratios of peptides to DNA on a 1% (w/v) agarose gel.
Gel-retardation experiments were performed by mixing 200 ng of the E. coli plasmid vector pCEP4 (Invitrogen) with increasing amounts of M6 peptide in 20 μl of binding buffer (5% glycerol, 10 mM Tris-HCl (pH 8.0), 1 mM EDTA, 1 mM DTT, 20 mM KCl and 50 μg/ml BSA). The reaction mixtures were incubated at room temperature for 1 h. Subsequently, 4 μl of native loading buffer was added (40% saccarose, 0.25% bromophenol blue) and an aliquot of 12 μl was applied to a 1% agarose gel electrophoresis in 1 mM Tris borate-EDTA buffer.

[6] = Escherichia coli ATCC 25922, reference strain
[7] = Pseudomonas aeruginosa ATCC27853, reference strain

Molecule | MIC (Molarity) [1, 6] | MIC (Molarity) [2, 7] | MIC (Molarity) [3] | MIC (Molarity) ([1]; ATCC 25922) | MIC (Molarity) ([2]; ATCC27853) | also measured
NCC[C@H](O)C(=O)N[C@@H]1C[C@H](N)[C@@H](O[C@H]2O[C@H](CN)[C@@H](O)[C@H](O)[C@H]2O)[C@H](O)[C@H]1O[C@H]1O[C@H](CO)[C@@H](O)[C@H](N)[C@H]1O [AMIKACIN, amikacin, reference compound] | 1.7 to 6.8 µM | 1.7 to 6.8 µM | 0.85 to 6.8 µM |  |  | 
CO/N=C(\C(=O)N[C@@H]1C(=O)N2C(C(=O)O)=C(CSc3nc(=O)c(=O)[nH]n3C)CS[C@H]12)c1csc(N)n1 [CEFTRIAXONE, ceftriaxone, reference compound] | 14 to 110 µM | 1.7 to 14 µM | 0.054 to 0.21 µM |  |  | 
CC[C@H](C)[C@H](NC(=O)[C@H](CCCCN)NC(=O)[C@H](CCC(=O)O)NC(=O)[C@@H](N)CCC(N)=O)C(=O)N[C@@H](CCCNC(=N)N)C(=O)N[C@H](C(=O)N[C@@H](CCCNC(=N)N)C(=O)N[C@@H](CC(C)C)C(=O)N[C@@H](CO)C(=O)N[C@@H](C)C(N)=O)C(C)C [L1, QEKIRVRLSA] (H-QEKIRVRLSA-NH2; N-terminus assumed) |  |  |  |  |  | Antibacterial activity on E. coli TG1 colony growth (E. coli strain TG1): inhibited significantly; Resistance to plasmatic protease: Plasma 2 h [4]: +; Resistance to plasmatic protease: Plasma 24 h [4]: −
C[C@H]1COc2c(N3CCN(C)CC3)c(F)cc3c(=O)c(C(=O)O)cn1c23 [LEVOFLOXACIN, levofloxacin, reference compound] | 1.3 to 11 µM | 0.16 to 1.3 µM | 0.022 to 16 µM |  |  | 
I: AKKIRVRLSAKKA-OH / II: AKKIRVRLSAK / III: AKKIRVRLSA / IV: AKKIRVRLSA (amide I:11-IV:C, I:12-II:C, II:11-III:C) [M31] |  |  | >12 µM | 3 µM | 3 µM | 
I: QKAIRVRLSAKKA-OH / II: QKAIRVRLSAK / III: QKAIRVRLSA / IV: QKAIRVRLSA (amide I:11-IV:C, I:12-II:C, II:11-III:C) [M33, QKAIRVRLSA] | 1.5 µM | 1.5 µM | >12 µM |  |  | 
I: QKKARVRLSAKKA-OH / II: QKKARVRLSAK / III: QKKARVRLSA / IV: QKKARVRLSA (amide I:11-IV:C, I:12-II:C, II:11-III:C) [M34, QKKARVRLSA] | >12 µM |  | >12 µM |  | 12 µM | 
I: QKKIAVRLSAKKA-OH / II: QKKIAVRLSAK / III: QKKIAVRLSA / IV: QKKIAVRLSA (amide I:11-IV:C, I:12-II:C, II:11-III:C) [M35, QKKIAVRLSA] |  |  | >12 µM | 6 µM | 1.5 µM | 
I: QKKIRVALSAKKA-OH / II: QKKIRVALSAK / III: QKKIRVALSA / IV: QKKIRVALSA (amide I:11-IV:C, I:12-II:C, II:11-III:C) [M37] |  |  | >12 µM | 3 µM | 3 µM | 
I: QKKIRVRLAAKKA-OH / II: QKKIRVRLAAK / III: QKKIRVRLAA / IV: QKKIRVRLAA (amide I:11-IV:C, I:12-II:C, II:11-III:C) [M39, QKKIRVRLAA] |  |  | >12 µM | 3 µM | 3 µM | 
I: QKRIRVRLSAKKA-OH / II: QKRIRVRLSAK / III: QKRIRVRLSA / IV: QKRIRVRLSA (amide I:11-IV:C, I:12-II:C, II:11-III:C) [M29, QKRIRVRLSA] |  |  | >12 µM | 6 µM | 6 µM | 
I: QRKIRVRLSAKKA-OH / II: QRKIRVRLSAK / III: QRKIRVRLSA / IV: QRKIRVRLSA (amide I:11-IV:C, I:12-II:C, II:11-III:C) [M28] | 0.38 µM | 0.76 µM | >12 µM |  |  | 
I: QRRIRVRLSAKKA-OH / II: QRRIRVRLSAK / III: QRRIRVRLSA / IV: QRRIRVRLSA (amide I:11-IV:C, I:12-II:C, II:11-III:C) [M30, QRRIRVRLSA] |  |  | >12 µM | 3 µM | 12 µM | 
QKKIRARLSA [M36] | >12 µM | >12 µM | >12 µM |  |  | 
QKKIRVRASA [M38] | >12 µM | >12 µM | >12 µM |  |  | 
magainin 2 [reference compound] |  |  |  |  |  | Weight ratio of peptide to DNA at which migration of DNA is inhibited [5]: 5
